From ChEMBL document CHEMBL4011582, “Human drug-induced liver injury severity is highly associated with dual inhibition of liver mitochondrial function and bile salt export pump” (Hepatology, 2014)
pIC50: −log10 of the molar value.

How the values were obtained:
clinical = details: human
Liver = assay type: ADME, mitochondria, Rattus norvegicus, Sprague-Dawley
Bile salt export pump = Bile salt export pump (Homo sapiens, UniProt O95342); assay type: ADME
Bile salt export pump, sequence (O95342 whole entry): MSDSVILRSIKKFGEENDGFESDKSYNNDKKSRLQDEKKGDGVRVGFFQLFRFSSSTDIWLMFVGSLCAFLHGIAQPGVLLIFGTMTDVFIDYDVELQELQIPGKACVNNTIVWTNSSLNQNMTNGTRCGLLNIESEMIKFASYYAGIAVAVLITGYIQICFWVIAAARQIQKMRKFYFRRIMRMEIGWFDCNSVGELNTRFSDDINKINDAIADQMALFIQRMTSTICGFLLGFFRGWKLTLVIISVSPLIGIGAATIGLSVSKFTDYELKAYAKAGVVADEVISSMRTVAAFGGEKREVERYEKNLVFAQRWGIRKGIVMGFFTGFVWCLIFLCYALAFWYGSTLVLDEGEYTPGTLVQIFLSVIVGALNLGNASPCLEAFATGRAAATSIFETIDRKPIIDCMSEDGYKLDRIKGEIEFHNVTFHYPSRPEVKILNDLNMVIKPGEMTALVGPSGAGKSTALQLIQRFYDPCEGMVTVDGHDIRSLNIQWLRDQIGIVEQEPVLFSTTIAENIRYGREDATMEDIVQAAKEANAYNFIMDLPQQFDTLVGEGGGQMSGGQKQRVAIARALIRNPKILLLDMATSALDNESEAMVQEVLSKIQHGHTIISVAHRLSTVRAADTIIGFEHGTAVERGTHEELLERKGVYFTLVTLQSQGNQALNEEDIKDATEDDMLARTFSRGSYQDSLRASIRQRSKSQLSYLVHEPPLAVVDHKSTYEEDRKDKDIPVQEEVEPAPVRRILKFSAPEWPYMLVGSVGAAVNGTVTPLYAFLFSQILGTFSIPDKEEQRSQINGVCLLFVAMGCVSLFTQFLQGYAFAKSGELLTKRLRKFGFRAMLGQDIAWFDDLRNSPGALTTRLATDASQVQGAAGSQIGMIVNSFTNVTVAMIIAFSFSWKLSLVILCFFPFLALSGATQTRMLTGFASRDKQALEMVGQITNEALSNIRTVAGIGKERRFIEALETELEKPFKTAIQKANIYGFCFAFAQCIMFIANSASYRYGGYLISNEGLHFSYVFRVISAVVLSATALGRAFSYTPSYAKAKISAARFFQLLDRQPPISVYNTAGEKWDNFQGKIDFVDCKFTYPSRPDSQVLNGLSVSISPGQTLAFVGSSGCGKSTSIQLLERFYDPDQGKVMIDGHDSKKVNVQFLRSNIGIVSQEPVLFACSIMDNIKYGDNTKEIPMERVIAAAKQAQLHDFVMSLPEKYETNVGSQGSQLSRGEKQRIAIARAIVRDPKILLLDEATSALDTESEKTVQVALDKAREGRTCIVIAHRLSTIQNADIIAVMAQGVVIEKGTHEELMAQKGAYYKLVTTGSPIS

Compound | Cmax (clinical) | IC50 (Liver) | pIC50 (Bile salt export pump; read-out: IC50) | pIC50 (Bile salt export pump)
CCCc1nc2c(C)cc(-c3nc4ccccc4n3C)cc2n1Cc1ccc(-c2ccccc2C(=O)O)cc1 | 851 nM | – | – | –
CC(C)(C)NC(=O)[C@@H]1C[C@@H]2CCCC[C@@H]2CN1C[C@@H](O)[C@H](Cc1ccccc1)NC(=O)[C@H](CC(N)=O)NC(=O)c1ccc2ccccc2n1 | 3360 nM | Non-Toxic | – | –
CC(C)CN(C[C@@H](O)[C@H](Cc1ccccc1)NC(=O)O[C@H]1CCOC1)S(=O)(=O)c1ccc(N)cc1 | 15200 nM | Non-Toxic | – | –
CC(C)(C)NC(=O)[C@@H]1CN(Cc2cccnc2)CCN1C[C@@H](O)C[C@@H](Cc1ccccc1)C(=O)N[C@H]1c2ccccc2C[C@H]1O.O | 11700 nM | Non-Toxic | – | –
Cc1c(O)cccc1C(=O)N[C@@H](CSc1ccccc1)[C@H](O)CN1C[C@H]2CCCC[C@H]2C[C@H]1C(=O)NC(C)(C)C | 7040 nM | – | – | –
CC(C)(C)NCC(O)c1ccc(O)c(CO)c1 (stereo unspecified) [ALBUTEROL] | 58 nM | Non-Toxic | – | –
Oc1ncnc2[nH]ncc12 [ALLOPURINOL] | – | – | < 4.00 | –
CCCN(CCC)C(=O)Cc1c(-c2ccc(Cl)cc2)nc2ccc(Cl)cn12 [ALPIDEM] | 285 nM | – | – | –
C[C@H]1C[C@H]2[C@@H]3CCC4=CC(=O)C=C[C@]4(C)[C@@]3(Cl)[C@@H](O)C[C@]2(C)[C@@]1(O)C(=O)CO [BECLOMETHASONE] | 0.2 nM | Non-Toxic | 4.99 | –
CCc1oc2ccccc2c1C(=O)c1cc(Br)c(O)c(Br)c1 [BENZBROMARONE] | 4340 nM | – | 4.80 | –
CC(O)(CS(=O)(=O)c1ccc(F)cc1)C(=O)Nc1ccc(C#N)c(C(F)(F)F)c1 (stereo unspecified) [BICALUTAMIDE] | 1970 nM | – | 4.53 | –
COc1ccccc1Oc1c(NS(=O)(=O)c2ccc(C(C)(C)C)cc2)nc(-c2ncccn2)nc1OCCO [BOSENTAN] | 7430 nM | – | 4.54 | –
CN(C)CCC(c1ccc(Br)cc1)c1ccccn1 (stereo unspecified) [BROMPHENIRAMINE] | 36 nM | Non-Toxic | – | –
CCC(=O)O[C@]1(C(=O)CCl)[C@@H](C)C[C@H]2[C@@H]3CCC4=CC(=O)C=C[C@]4(C)[C@@]3(F)[C@@H](O)C[C@@]21C [CLOBETASOL PROPIONATE] | 43 nM | Non-Toxic | – | –
CC(C)/N=c1\cc2n(-c3ccc(Cl)cc3)c3ccccc3nc-2cc1Nc1ccc(Cl)cc1 [CLOFAZIMINE] | 1480 nM | Non-Toxic | – | –
Clc1ccccc1C(c1ccccc1)(c1ccccc1)n1ccnc1 [CLOTRIMAZOLE] | 87 nM | – | – | –
C#C[C@]1(O)CC[C@H]2[C@@H]3CCC4=Cc5oncc5C[C@]4(C)[C@H]3CC[C@@]21C [DANAZOL] | 750 nM | – | – | –
O=C(O)Cc1ccccc1Nc1c(Cl)cccc1Cl [DICLOFENAC] | – | – | 4.36 | –
Clc1ccc(COC(Cn2ccnc2)c2ccc(Cl)cc2Cl)cc1 (stereo unspecified) [ECONAZOLE] | 1 nM | – | – | 4.87

Compound | Cmax (clinical) | IC50 (Liver) | pIC50 (Bile salt export pump; read-out: IC50) | pIC50 (Bile salt export pump)
CCC(=O)O[C@H]1[C@H](O[C@@H]2[C@@H](C)[C@H](O[C@H]3C[C@@](C)(OC)[C@@H](O)[C@H](C)O3)[C@@H](C)C(=O)O[C@H](CC)[C@@](C)(O)[C@H](O)[C@@H](C)C(=O)[C@H](C)C[C@@]2(C)O)O[C@H](C)C[C@@H]1N(C)C.CCCCCCCCCCCCOS(=O)(=O)O [ERYTHROMYCIN ESTOLATE] | 4200 nM | – | – | –
C#C[C@]1(OC(C)=O)CC[C@H]2[C@@H]3CCC4=C[C@@H](OC(C)=O)CC[C@@H]4[C@H]3CC[C@@]21C [ETHYNODIOL DIACETATE] | 29 nM | – | 4.21 | –
CC(C)OC(=O)C(C)(C)Oc1ccc(C(=O)c2ccc(Cl)cc2)cc1 [FENOFIBRATE] | 12100 nM | – | 4.39 | –
CC(C)(C)NC(=O)[C@H]1CC[C@H]2[C@@H]3CC[C@H]4NC(=O)C=C[C@]4(C)[C@H]3CC[C@]12C [FINASTERIDE] | 99 nM | Non-Toxic | – | –
CC(C)C(=O)Nc1ccc([N+](=O)[O-])c(C(F)(F)F)c1 [FLUTAMIDE] | 362 nM | – | 4.17 | –
CC(C)n1c(/C=C/C(O)CC(O)CC(=O)O)c(-c2ccc(F)cc2)c2ccccc21 (stereo unspecified) [FLUVASTATIN] | 663 nM | Non-Toxic | – | –
Nc1nc(=O)c2nc(CNc3ccc(C(=O)N[C@@H](CCC(=O)O)C(=O)O)cc3)cnc2[nH]1 [FOLIC ACID] | 135 nM | Non-Toxic | – | –
NS(=O)(=O)c1cc(C(=O)O)c(NCc2ccco2)cc1Cl [FUROSEMIDE] | 18100 nM | – | – | –
COc1cc2ncnc(Nc3ccc(F)c(Cl)c3)c2cc1OCCCN1CCOCC1 [GEFITINIB] | 356 nM | – | – | –
COc1ccc(Cl)cc1C(=O)NCCc1ccc(S(=O)(=O)NC(=O)NC2CCCCC2)cc1 [GLYBURIDE] | 210 nM | – | – | –
Cc1ccc(NC(=O)c2ccc(CN3CCN(C)CC3)cc2)cc1Nc1nccc(-c2cccnc2)n1 [IMATINIB] | 7090 nM | Non-Toxic | – | –
CCCCC1=NC2(CCCC2)C(=O)N1Cc1ccc(-c2ccccc2-c2nnn[nH]2)cc1 [IRBESARTAN] | 3500 nM | Non-Toxic | – | –
CC1=C(/C=C/C(C)=C/C=C/C(C)=C\C(=O)O)C(C)(C)CCC1 [ISOTRETINOIN] | 2870 nM | – | – | –
CC(=O)N1CCN(c2ccc(OCC3COC(Cn4ccnc4)(c4ccc(Cl)cc4Cl)O3)cc2)CC1 (stereo unspecified) [KETOCONAZOLE] | 12500 nM | – | – | –
CS(=O)(=O)CCNCc1ccc(-c2ccc3ncnc(Nc4ccc(OCc5cccc(F)c5)c(Cl)c4)c3c2)o1 [LAPATINIB] | 4180 nM | Non-Toxic | – | –
N[C@@H](Cc1cc(I)c(Oc2ccc(O)c(I)c2)c(I)c1)C(=O)O [LIOTHYRONINE] | 108 nM | – | – | –
CCCCc1nc(Cl)c(CO)n1Cc1ccc(-c2ccccc2-c2nnn[nH]2)cc1 [LOSARTAN] | 651 nM | Non-Toxic | – | –
CC[C@H](C)C(=O)O[C@H]1C[C@@H](C)C=C2C=C[C@H](C)[C@H](CC[C@@H]3C[C@@H](O)CC(=O)O3)[C@H]21 [LOVASTATIN] | 25 nM | Non-Toxic | – | –
Cc1cccc(Nc2ccccc2C(=O)O)c1C [MEFENAMIC ACID] | 26900 nM | – | 4.24 | –

Compound | Cmax (clinical) | IC50 (Liver) | pIC50 (Bile salt export pump; read-out: IC50) | pIC50 (Bile salt export pump)
Cc1ncc2n1-c1ccc(Cl)cc1C(c1ccccc1F)=NC2 [MIDAZOLAM] | 650 nM | Non-Toxic | – | –
CCc1nn(CCCN2CCN(c3cccc(Cl)c3)CC2)c(=O)n1CCOc1ccccc1 [NEFAZODONE] | 6800 nM | – | 5.15 | –
COC(=O)C1=C(C)NC(C)=C(C(=O)OCCN(C)Cc2ccccc2)C1c1cccc([N+](=O)[O-])c1 (stereo unspecified) [NICARDIPINE] | 81 nM | – | – | –
COC(=O)C1=C(C)NC(C)=C(C(=O)OC)C1c1ccccc1[N+](=O)[O-] [NIFEDIPINE] | – | Non-Toxic | 4.16 | –
COCCOC(=O)C1=C(C)NC(C)=C(C(=O)OC(C)C)C1c1cccc([N+](=O)[O-])c1 (stereo unspecified) [NIMODIPINE] | 195 nM | – | – | –
COC(=O)C1=C(C)NC(C)=C(C(=O)OCC(C)C)C1c1ccccc1[N+](=O)[O-] (stereo unspecified) [NISOLDIPINE] | 12.9 nM | Non-Toxic | – | –
CCN(CC)CC#CCOC(=O)C(O)(c1ccccc1)C1CCCCC1 (stereo unspecified) [OXYBUTYNIN] | 22 nM | Non-Toxic | – | –
CC(=O)O[C@H]1C(=O)[C@@]2(C)[C@H]([C@H](OC(=O)c3ccccc3)[C@]3(O)C[C@H](OC(=O)[C@H](O)[C@@H](NC(=O)c4ccccc4)c4ccccc4)C(C)=C1C3(C)C)[C@]1(OC(C)=O)CO[C@@H]1C[C@@H]2O [PACLITAXEL] | – | Non-Toxic | – | –
CC(COc1ccccc1)N(CCCl)Cc1ccccc1 (stereo unspecified) [PHENOXYBENZAMINE] | 197 nM | Non-Toxic | – | –
Cc1ccc(N(CC2=NCCN2)c2cccc(O)c2)cc1 [PHENTOLAMINE] | 86 nM | Non-Toxic | – | –
CCc1ccc(CCOc2ccc(CC3SC(=O)NC3=O)cc2)nc1 (stereo unspecified) [PIOGLITAZONE] | 2950 nM | – | – | –
CC(=O)[C@H]1CC[C@H]2[C@@H]3CCC4=CC(=O)CC[C@]4(C)[C@H]3CC[C@]12C [PROGESTERONE] | 193 nM | – | – | –
CO[C@H]1/C=C/O[C@@]2(C)Oc3c(C)c(O)c4c(c3C2=O)C2=NC3(CCN(CC(C)C)CC3)NC2=C(NC(=O)/C(C)=C\C=C\[C@H](C)[C@H](O)[C@@H](C)[C@@H](O)[C@@H](C)[C@H](OC(C)=O)[C@@H]1C)C4=O [RIFABUTIN] | 685 nM | Non-Toxic | – | –
CC(C)c1nc(CN(C)C(=O)N[C@H](C(=O)N[C@@H](Cc2ccccc2)C[C@H](O)[C@H](Cc2ccccc2)NC(=O)OCc2cncs2)C(C)C)cs1 [RITONAVIR] | 19700 nM | Non-Toxic | – | –
CNC(=O)c1cc(Oc2ccc(NC(=O)Nc3ccc(Cl)c(C(F)(F)F)c3)cc2)ccn1 [SORAFENIB] | 132 nM | – | – | –
CN1CCN(CCCN2c3ccccc3Sc3ccc(C(F)(F)F)cc32)CC1 [TRIFLUOPERAZINE] | 5.3 nM | Non-Toxic | – | –
Cc1c(C)c2c(c(C)c1O)CCC(C)(COc1ccc(CC3SC(=O)NC3=O)cc1)O2 (stereo unspecified) [TROGLITAZONE] | 6390 nM | – | – | –
COc1cc(C(=O)NS(=O)(=O)c2ccccc2C)ccc1Cc1cn(C)c2ccc(NC(=O)OC3CCCC3)cc12 [ZAFIRLUKAST] | 1210 nM | – | – | –
